{
  "source": "patent US20190359547A1",
  "about": "“METHOD OF RETARDING AN ETHYLENE RESPONSE” (CURTIN UNIVERSITY OF TECHNOLOGY, priority 2016, published 2019)",
  "key": {"[1]": {"tested_on": "'Tegan Blue' Japanese plum fruit", "experiment": "climacteric ethylene level in 'Tegan Blue' plum fruit after fumigation", "assay_type": "in vivo", "conditions": "for level of climacteric ethylene, suppressed, in comparison to the solely ethylene treated fruit: 'Tegan Blue' plum, ethylene only 4.73 μmol kg^-1 h^-1"}, "[2]": {"tested_on": "'Arctic Pride' nectarine fruit", "experiment": "climacteric ethylene level in 'Arctic Pride' nectarine fruit after fumigation", "assay_type": "in vivo", "conditions": "BC 50 nLL^-1 + ethylene, ethylene only 0.414 μmol kg^-1 h^-1"}, "[3]": {"tested_on": "'Tegan Blue' Japanese plum fruit", "experiment": "climacteric respiration (CO2 production) in 'Tegan Blue' plum fruit", "assay_type": "in vivo", "conditions": "ethylene only 0.72 mmol CO2 kg^-1 h^-1"}, "[4]": {"tested_on": "'Arctic Pride' nectarine fruit", "experiment": "climacteric respiration (CO2 production) in 'Arctic Pride' nectarine fruit", "assay_type": "in vivo", "conditions": "ethylene only 0.31 mmol CO2 kg^-1 h^-1"}, "[5]": {"tested_on": "WX17 wax flower", "experiment": "flower/bud abscission in WX17 wax flower", "assay_type": "in vivo, Wax flower (Chamelaucium Desf.)", "conditions": "BC 100 nLL^-1 fumigation followed by ethylene exposure (10 μLL^-1)", "description": "(§1) To evaluate the effects of BC and NC on flower abscission, flowering stems of Wax flower (Chamelaucium Desf.) (WX17, WX73 and WX107) were collected from mature bushes grown at Department of Agriculture and Food Western Australia (DAFWA), Perth (31° 58′ 55″ S/115° 51′ 47″ E). Collected stems were immediately placed upright in buckets with water and recut at 20-25 cm in length (from the cut end to the most extreme opened-flowers). The flower stalks were treated similarly as the fruits with BC (0-100 nLL^−1) or NC (0-100 nLL^−1) and ethylene. The experiments were laid out by following CRD design, having five replications for each treatment and five stalks in each replication. During the treatment period, the flower stalks were placed in small plastic bottles with distilled water. A cone made of nylon mesh was placed at the base of the stalks to check the number of abscised flowers. […]\n(§2) The experimental data were analysed following one-way analysis of variance (ANOVA) by using Genstat 13 (release 13.1; Lawes Agricultural Trust, Rothamsted Experimental Station, Harpenden, UK). The effects of various treatments and their interactions were assessed and least significant differences (Fisher's LSD) were calculated by F test at 5% level of significance."}, "[6]": {"tested_on": "WX73 wax flower", "experiment": "flower/bud abscission in WX73 wax flower", "assay_type": "in vivo, Wax flower (Chamelaucium Desf.)", "description": "as §1, §2"}, "[7]": {"experiment": "stability at room temperature", "assay_type": "physicochemical"}, "[8]": {"experiment": "solubility in water", "assay_type": "physicochemical"}},
  "data": [
    {"smiles": "c1ccc2c(c1)C2", "note": "[BC, benzocyclopropene]", "values": [
      {"measurement": "level of climacteric ethylene, suppressed, in comparison to the solely ethylene treated fruit", "setting": "[1]; 100 nLL^-1 BC fumigation 18 hr + ethylene (10 μL L^-1, 24 hr)", "value": 0.80, "unit": "fold"},
      {"measurement": "effect on climacteric ethylene and respiration compared with 1-MCP (1000 nL L^-1)", "setting": "[1]; BC 100 nL L^-1 versus 1-MCP 1000 nL L^-1, 'Tegan Blue' and 'Fortune' plum, 'Arctic Pride' nectarine", "value": "non-significant differences"},
      {"measurement": "levels of ethylene, suppressed, than the solely ethylene treated fruit", "setting": "[2]", "value": 0.63, "unit": "fold"},
      {"measurement": "climacteric respiration, suppressed, than the solely ethylene treated fruit", "setting": "[3]; BC 100 nLL^-1 + ethylene", "value": 0.83, "unit": "fold"},
      {"measurement": "suppression of respiration climacteric in comparison to the solely ethylene treated fruit", "setting": "[4]; BC 50 nLL^-1 + ethylene", "value": 0.77, "unit": "fold"},
      {"measurement": "suppression of respiration climacteric in comparison to the solely ethylene treated fruit", "setting": "[4]; BC 50 nLL^-1 without ethylene", "value": 0.71, "unit": "fold"},
      {"measurement": "rate of flower/bud abscission", "setting": "[5]", "value": 6.05, "unit": "%"},
      {"measurement": "rate of flower/bud abscission", "setting": "[6]; 50 nL L^-1 BC followed by ethylene treatment", "value": 22.43, "unit": "%"},
      {"measurement": "rate of flower/bud abscission", "setting": "[6]; 100 nL L^-1 BC followed by ethylene treatment", "value": 28.40, "unit": "%"},
      {"measurement": "stability", "setting": "[7]", "value": "stable at room temperature for several months"},
      {"measurement": "solubility in water", "setting": "[8]", "value": "only partially soluble in water"}
    ]},
    {"smiles": "CC1=CC1", "note": "[1-MCP, 1-Methylcyclopropene, reference compound]", "values": [
      {"measurement": "level of climacteric ethylene, suppressed, in comparison to the solely ethylene treated fruit", "setting": "[1]; 1000 nLL^-1 1-MCP fumigation 18 hr + ethylene (10 μL L^-1, 24 hr)", "value": 0.70, "unit": "fold"},
      {"measurement": "climacteric respiration, suppressed, than the solely ethylene treated fruit", "setting": "[3]; 1-MCP 1000 μLL^-1 + ethylene", "value": 0.77, "unit": "fold"}
    ]}
  ]
}
